The source of these data is patent publication US20110318768A1, “METHOD FOR DETERMINING SENSITIVITY OF TUMOR CELLS TO TYROSINE KINASE INHIBITOR AND COMPUTER PROGRAM PRODUCT” (SYSMEX CORPORATION, priority 2010, published 2011).

Assay [1] relates to tyrosine kinase in cell membrane fraction of MDA-MB-157. The assay is described as follows: Tyrosine kinase activity inhibition rate in cell membrane fraction (Poly-Glu4-Tyr substrate). In kind it is biochemical. The note with it: for Inhibition rate: 25 μM kinase inhibitor, 25 μM ATP. Put shortly:
(§1)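 Membrane fractions (1% NP-40 extracts after NP-40-free washes) were incubated with inhibitor at room temperature for 10 min, then reacted on immobilized biotin-Poly-Glu4-Tyr at 37 °C for 60 min. Final: 5 μg/ml protein, 25 μM ATP, 25 μM inhibitor, 20 mM MgCl2, 1 mM MnCl2, pH 7.4. Phosphotyrosine detected by HRP anti-pTyr chemiluminescence.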

In assay [2] the test system is tyrosine kinase in cell membrane fraction of ZR-75-1. The assay is described as above. In kind it is biochemical. The note with it: for Inhibition rate: 25 μM kinase inhibitor, 25 μM ATP. Put shortly: as §1
The test system of assay [3] is tyrosine kinase in cell membrane fraction of UACC893. The description is as above. In kind it is biochemical. To be noted: for Inhibition rate: UACC893, 25 μM kinase inhibitor, 25 μM ATP. Put shortly:
as §1

The subject of assay [4] is tyrosine kinase in cell membrane fraction of MDA-MB-436. The description is as above. In kind it is biochemical. To be noted: for Inhibition rate: 25 μM kinase inhibitor, 25 μM ATP. Put shortly:
as §1

Assay [5] concerns tyrosine kinase in cell membrane fraction of BT-483. The assay is described as above. To be noted: for Inhibition rate: 25 μM kinase inhibitor, 25 μM ATP. In kind it is biochemical. Put shortly: as §1
Assay [6] has as its system tyrosine kinase in cell membrane fraction of HCC1954. The description is as above. In kind it is biochemical. The note with it: for Inhibition rate: 25 μM kinase inhibitor, 25 μM ATP. Put shortly:
as §1

Assay [7] deals with tyrosine kinase in cell membrane fraction of BT-20. Described as above. In kind it is biochemical. The note with it: for Inhibition rate: 25 μM kinase inhibitor, 25 μM ATP. Put shortly:
as §1

For assay [8], the system named is tyrosine kinase in cell membrane fraction of BT-474. The assay is described as above. It is filed as biochemical. The note with it: for Inhibition rate: 25 μM kinase inhibitor, 25 μM ATP. Put shortly: as §1
Assay [9] concerns tyrosine kinase in cell membrane fraction of T47D. The description is as above. It is filed as biochemical. The note with it: 25 μM kinase inhibitor, 25 μM ATP. Put shortly:
as §1

Assay [10] relates to tyrosine kinase in cell membrane fraction of BT-549. The description is as above. It is filed as biochemical. To be noted: for Inhibition rate: 25 μM kinase inhibitor, 25 μM ATP. Put shortly:
as §1

For assay [11], the system named is tyrosine kinase in cell membrane fraction of ZR-75-30. The description is as above. The note with it: for Inhibition rate: 25 μM kinase inhibitor, 25 μM ATP. It is filed as biochemical. Put shortly:
as §1

In assay [12] the test system is tyrosine kinase of T47D. The note with it: US 2011027809; cited from earlier work.

Structures are written as SMILES.

Consider `COc1cc2ncnc(Nc3cccc(Cl)c3)c2cc1OC` [Inhibitor 1], for which the Inhibition rate in assay [1] was 45.0%; in assay [2], 20.8%; in assay [3], 21.2%; in assay [4], 33.9%; in [5], 54.7%; in assay [6], 39.4%. For the same compound, the Inhibition rate was 47.2% in [7]; 26.0% in assay [8]; 29.1% in [9]; 52.9% in assay [10]; 20.1% in assay [11].

Regarding `CN1CCC(Nc2ncc3ncnc(Nc4ccc(F)c(Cl)c4)c3n2)CC1` [Inhibitor 2], the Inhibition rate in [1] is 14.3%; in assay [2] it was 9.0%; in [3], 4.1%; in assay [4] it was 19.0%; in assay [5], 40.3%; in [6], 19.7%. Besides, the Inhibition rate in assay [7] is on record as 18.9%; in assay [8], 10.5%; in [9] it was 7.7%; in [10], 21.7%; in assay [11], 4.4%.

As for `COc1cc2ncnc(Nc3ccc(OCc4ccccc4)cc3)c2cc1OC` [Inhibitor 3, 4-(4-benzyloxyanilino)-6,7-dimethoxyquinazoline], the Inhibition rate in [1] amounted to 38.0%; in [2], 38.5%; in assay [3], 22.9%; in [4] it was 48.7%; in [5], 68.5%; in [6] it was 31.8%. Also, the Inhibition rate in [7] worked out at 42.2%; in assay [8] it was 15.1%; in assay [9] it was 30.2%; in assay [10], 59.8%; in assay [11] it was 37.2%.

As for `CN(C)c1cc2c(Nc3ccc4c(cnn4Cc4ccccc4)c3)ncnc2cn1` [Inhibitor 4, N4-(1-benzyl-1H-indazol-5-yl)-N6,N6-dimethyl-pyrido-[3,4-d]-pyrimidine-4,6-diamine], the Inhibition rate in [1] is listed as 29.2%; in assay [2], 7.0%; in assay [3] it was −3.1%; in assay [4] it was 26.3%; in assay [5], 52.7%; in assay [6] it was 23.2%. Besides, the Inhibition rate in assay [7] amounted to 32.4%; in [8], 24.6%; in [9], 27.0%; in [10], 48.8%; in assay [11] it was 20.9%.

As for `CS(=O)(=O)CCNCc1nc(-c2ccc3ncnc(Nc4ccc(OCc5cccc(F)c5)c(Cl)c4)c3c2)cs1.Cl.Cl` [Inhibitor 5, N-[3-chloro-4-[(3-fluorophenyl)methoxy]phenyl]-6-[2-[[[2-(methylsulfonyl)ethyl]amino]methyl]-4-thiazolyl]-4-quinazolineamine dihydrochloride], the Inhibition rate in assay [1] is listed as 56.1%; in [2], 44.8%; in assay [3], 48.4%; in assay [4] it was 68.5%; in assay [5] it was 66.9%; in assay [6], 59.5%. Also, the Inhibition rate in [7] came to 56.3%; in assay [8], 42.7%; in assay [9], 50.9%; in assay [10] it was 68.8%; in [11] it was 64.4%.

Take `COc1cc2c(cc1OC)-c1[nH]nc(Nc3cccc(F)c3)c1C2` [Inhibitor 6]: the Inhibition rate in assay [1] is listed as 49.0%; in [2], 32.5%; in assay [3], 28.0%; in assay [4], 36.1%; in [5] it was 62.9%; in [6], 41.5%. For the same compound, the Inhibition rate is on record as 28.1% in assay [7]; 30.7% in [8]; 37.5% in assay [9]; 50.1% in assay [10]; 27.0% in assay [11].

As to `CCCNC(=O)Nc1ccc(Oc2ncnc3cc(OC)c(OC)cc23)cc1Cl` [Inhibitor 7], the Inhibition rate in [1] turned out to be 11.2%; in assay [2], 18.3%; in assay [3] it was 23.9%; in assay [4], 23.1%; in assay [5] it was 17.3%; in [6] it was 17.6%. In addition, the Inhibition rate in [7] is reported as 2.3%; in assay [8] it was 30.3%; in [9], 22.0%; in assay [10], 24.0%; in [11] it was 18.5%.

As to `Cc1cc(F)c(Nc2ncnc3cc(OCc4ccccc4)ccc23)cc1O.Cl` [Inhibitor 8], the Inhibition rate in assay [1] came out at 8.3%; in assay [2] it was 0.6%; in assay [3] it was 3.3%; in [4], 12.1%; in assay [5], 27.2%; in assay [6] it was 4.1%. Moreover, the Inhibition rate in assay [7] is 18.5%; in [8] it was 18.0%; in assay [9], 38.1%; in [10], 5.1%; in assay [11], 10.1%.

Turning to `Cc1[nH]c(/C=C2\C(=O)Nc3ccc(S(=O)(=O)N(C)c4cccc(Cl)c4)cc32)c(C)c1C(=O)N1CCN(C)CC1` [Inhibitor 9], the Inhibition rate came to 56.8% in assay [1]; 53.9% in assay [2]; 56.9% in [3]; 74.0% in assay [4]; 68.6% in assay [5]; 65.7% in assay [6]. Further, the Inhibition rate turned out to be 51.4% in assay [7]; 54.6% in assay [8]; 42.5% in [9]; 81.4% in [10]; 65.1% in [11].

With `COc1cc2ncnc(Nc3ccc(Oc4ccccc4)cc3)c2cc1OC` [Inhibitor 10, 4-(4′-phenoxyanilino)-6,7-dimethoxyquinazoline], the “tyrosine kinase activity inhibitory effects caused by the Src inhibitor” value in [12] is “low”. Also, the “Example 1 Inhibitory capacity of Src inhibitor” value in assay [1] is recorded as “high (the term “high” means a cell line whose inhibition rate of the Src inhibitor is more than the threshold value)”; in assay [2], “high (the term “high” means a cell line whose inhibition rate of the Src inhibitor is more than the threshold value)”; in assay [3] (UACC-893) it was “low (the term “low” means a cell line whose inhibition rate of the Src inhibitor is lower than the threshold value (=43.4%))”; in assay [4], “high (the term “high” means a cell line whose inhibition rate of the Src inhibitor is more than the threshold value)”; in assay [5], “high (the term “high” means a cell line whose inhibition rate of the Src inhibitor is more than the threshold value)”; in assay [6], “high (the term “high” means a cell line whose inhibition rate of the Src inhibitor is more than the threshold value)”. Also, the “Example 1 Inhibitory capacity of Src inhibitor” value in assay [7] is “high (the term “high” means a cell line whose inhibition rate of the Src inhibitor is more than the threshold value)”; in [8], “low (the term “low” means a cell line whose inhibition rate of the Src inhibitor is lower than the threshold value (=43.4%))”; in assay [10], “high (the term “high” means a cell line whose inhibition rate of the Src inhibitor is more than the threshold value)”; in [11] it was “low (the term “low” means a cell line whose inhibition rate of the Src inhibitor is lower than the threshold value (=43.4%))”. In addition, the Inhibition rate in assay [1] was found to be 60.3%; in [2], 55.8%; in assay [3] it was 25.6%; in [4] it was 44.9%; in assay [5], 78.5%; in assay [6], 46.5%. Moreover, the Inhibition rate stood at 56.6% in [7]; 37.6% in assay [8]; 42.3% in assay [9]; 60.6% in assay [10]; 37.3% in assay [11].
